Assay results as given in patent US12458688B2, “Epitopes” (Scancell Limited, priority 2018, dated 2025).
Where no end group is shown, it is not given here. [ ]: non-standard residue; d: D form. hCit = NC(=O)NCCCC[C@H](N)C(=O)O

Tests used:
[1] = tested on: PBMCs from healthy donors; assay: CFSE proliferation assay, CD25-depleted PBMCs of healthy donors; type: cell-based, human; details: 10 μg/ml peptide, day 10, vs media control
Protocol: (§1) Peripheral blood samples were drawn into lithium heparin tubes (Becton Dickinson) and processed immediately following venepuncture. PBMCs were isolated by density gradient centrifugation using Ficoll-Hypaque. Proliferation and cultured ELISpot assay of PBMCs were performed immediately after isolation. For CD25 depletion PBMCs were processed as above and […] using anti-CD25 microbeads and MACS Cell Separation Columns (Miltenyi).
(§2) Briefly, a 50 μM stock solution in warm PBS was prepared from a master solution of 5 mM in dimethyl sulfoxide (DMSO). CFSE was rapidly added to PBMCs (5×10^6 cells/ml loading buffer (PBS with 5% v/v heat inactivated FCS)) to achieve a final concentration of 5 μM. PBMCs were incubated at room temperature in the dark for 5 mins after which non-cellular incorporated CFSE was removed by washing twice with excess (×10 v/v volumes) of loading buffer (300g ×10 mins). Cells were made up in complete media to 1.5×10^6/mL and plated and stimulated with vehicle (negative control), PHA (positive control, final concentration 10 μg/ml) or peptide (10 μg/ml) as described above.
(§3) On day 10, 500 μl of cells were removed from culture, washed in PBS and stained with 1:50 dilution of anti-CD4 (PE-Cy5, clone RPA-T4, ThermoFisher), anti-CD8 efluor 450, clone RPA-T8, ThermoFisher) and anti-CD134 (PE-Cy7, Clone REA621, Miltenyi). […] Stained samples were analysed immediately on a MACSQuant 10 flow cytometer equipped with MACSQuant software version 2.8.168.16380.
Determination as to the existence of a repertoire of T cells for carbamylated epitopes in humans was investigated using PBMCs from normal, healthy donors. […] Cells were labelled with CFSE and proliferation was monitored after stimulation with homocitrulline peptides. […]
Determination as to the existence of a repertoire of T cells for carbamylated Cyk8 epitopes in humans was investigated using PBMCs from seven normal, healthy donors. […] Cells were labelled with CFSE and proliferation was monitored after stimulation with Cyk8 Hcit peptides.

[2] = tested on: PBMCs from cancer patients; assay: CFSE proliferation assay, CD25-depleted PBMCs of cancer patients; type: cell-based, human; details: 10 μg/ml peptide, day 10, vs media control
Protocol: as §1
as §2, with “Cells were made up in complete media to 1.5×10^6/mL and plated and stimulated with vehicle (negative control), PHA (positive control, final concentration 10 μg/ml) or peptide (10 μg/ml) as described above.” left out
as §3, with “2.8.168.16380. […]” for “2.8.168.16380.”

[3] = tested on: HLA-DR4 mice; assay: Ex vivo IFNγ ELISpot after peptide immunisation, HLA-DR4 mice; type: in vivo, mouse; details: for IFNγ ELISpot response: 3 immunisations with CpG/MPLA, day 21
Protocol: (§4) C57BL/6 mice (Charles River, UK), HLA-DR4 mice (Model #4149, Taconic, USA), HLA-A2/DR1 (HHDII/DR1, Pasteur Institute), HLA-A2.1+/+HLA-DP4+/+hCD4+/+ (HLA-HHDII/DP4) transgenic mice (EM: 02221, European Mouse Mutant Archive) described in patent WO2013/017545 A1 (EMMA repository, France) were used, aged between 8 and 12 weeks. Peptides were dissolved in PBS to 1 mg/ml and then emulsified (a series of dilutions) with CpG ODN 1826 and MPLA 6 μg/mouse of each (Invivogen, UK). Peptides (25 μg/mouse) were injected subcutaneously at the base of the tail. Mice were immunised at days 1, 7 and 14 for peptide immunisation. Spleens were removed for analysis at day 21 unless stated otherwise.
(§5) ELISpot assays were performed using murine IFNγ, IL-17 and IL-10 capture and detection reagents according to the manufacturer's instructions (Mabtech, Sweden). In brief, anti-IFNγ, IL-17 and IL-10 specific antibodies were coated onto wells of 96-well Immobilin-P plate. Synthetic peptides (at various concentrations) and 5×10^5 per well splenocytes were added to wells of the plate in quadruplicate Tumour target cells were added where relevant at 5×10^4/well in triplicate and plates incubated for 40 hrs at 37° C. After incubation, captured IFNγ, IL-10 and IL-17 were detected by biotinylated anti-IFNγ, IL-10 and IL-17 antibodies and developed with a streptavidin alkaline phosphatase and chromogenic substrate. Lipopolysaccharide (LPS; 5 μg/ml) was used as a positive control. For MHC blocking studies, anti-CD4 blocking antibody (GK1.5) or anti-CD4 blocking antibody (RPA-T4) for HHDII/DP4 mice which express human CD4 and anti-CD8 blocking antibody (2.43) from Bioxcell were used at 20 μg/ml. Spots were analysed and counted using an automated plate reader (Cellular Technologies Ltd).
(§6) Screening was performed to identify potential homocitrullinated vimentin epitopes in mice. Mice were immunised with pools of homocitrullinated peptides. […] Each pool was administered as three immunisations containing 20 μg of each peptide and CpG/MPLA as an adjuvant on day 1, 8 and 15. On day 21 the mice were culled and the immune responses to each peptide within the immunising pool were assessed by ex vivo ELISpot. Given that different mouse strains have different MHC repertoires a number of strains were used for screening. Peptide responses were assessed in transgenic strains expressing human DR4 or HHDII/DR1 in a C57BL/6 background (see methods).

[4] = tested on: HLA-HHDII/DR1 mice; assay: Ex vivo IFNγ ELISpot after peptide immunisation, HHDII/DR1 mice; type: in vivo, mouse; details: for IFNγ ELISpot response: 3 immunisations with CpG/MPLA, day 21
Protocol: as §4, §5
as §6, with “methods). […]” for “methods).”
The five selected homocitrullinated Cyk8 peptides were also screened in HHDII/DR1 transgenic mice. […] Response to Cyk8 112Hcit peptide in the HHDII/DR1 mice was lost in the presence of CD8 blocking antibody but less effect of the CD4 blocking antibody was seen (FIG. 12b). […] Responses to homocitrullinated Cyk8 peptides show both CD4 and CD8 mediated responses.

Row | Substance | CD4 T cell proliferation [1] | CD4 T cell proliferation [2] | IFNγ ELISpot response [3] | IFNγ response in presence of CD4 blocking antibody [4] | IFNγ response in presence of CD8 blocking antibody [4] | cross reactivity of Hcit response to wt peptide [4] | IFNγ ELISpot response [4] | IFNγ response in presence of CD4 blocking antibody [3] | IFNγ response in presence of CD8 blocking antibody [3] | cross reactivity of Hcit response to wt peptide [3]
1 | IGGVILFHETLYQ-hcit-ADDGRP (IGGVILFHETLYQ[hCit]ADDGRP) [Aldolase A 74-93 Hcit] | significant CD4 proliferation | significant proliferative responses | No responses were seen | – | – | – | – | – | – | –
2 | LEQQN-hcit-MLET-hcit-WSLLQQQ-hcit-T (LEQQN[hCit]MLET[hCit]WSLLQQQ[hCit]T) [Cyk8 112-131 Hcit] | – | – | – | less effect | lost | minimal cross reactivity | Significant responses | – | – | –
3 | LREYQELMNV-hcit-LALDIEI (LREYQELMNV[hCit]LALDIEI) [Cyk8 371-388 Hcit] | – | – | – | lost | not with the CD8 blocking antibody | minimal cross reactivity | Significant responses | – | – | –
4 | NYID-Hcit-VRFLEQQN-Hcit-ILLAEL (NYID[hCit]VRFLEQQN[hCit]ILLAEL) [Vimentin 116-135 Hcit] | significant CD4 proliferation | just short of significance | significant response | significantly decreased | not in the presence of the CD8 blocking antibody | no cross reactivity | significant response | significantly decreased | not in the presence of the CD8 blocking antibody | no cross reactivity
5 | hcit-DGADFA-hcit-WRCVL-hcit-IGEH ([hCit]DGADFA[hCit]WRCVL[hCit]IGEH) [Aldolase A 140-157 Hcit] | significant CD4 proliferation | – | No responses were seen | – | – | significantly higher | stimulated responses | – | – | –
